Reference: publication PMC7029871, “Development and validation of a sensitive LC-MS/MS method for the quantitation of IMB-YH-4py5-2H, an antituberculosis candidate, and its application to the pharmacokinetic study” (PLoS ONE, 2020)
Like-named read-outs stand apart in the source and are kept apart here.

Assays:
[1] = system: Rat AMs NR8383 cells; experiment: In vitro uptake study in alveolar macrophages; type: cell-based; conditions: 24 h-exposure in 2 μg/mL
Procedure: Rat AMs NR8383 cells (American Type Culture Collection, Manassas, VA, USA) were grown overnight at 37°C with 5% CO2 in Ham’s F12K medium (Gibco, Grand island, NY, USA) containing 20% fetal bovine serum (FBS, Gibco, Thornton, Australia) in 24-well culture plates (4 × 10^5 cells/well in 1 mL culture medium). After 24 h-exposure to IMB-YH-4py5-2H (2 μg/mL), the culture medium and the subsequent three washes were pooled and processed further for the determination of the extracellular drug concentrations. The cells were then extracted with 0.1 M NaOH to collect the intracellular drug for the LC-MS/MS analysis. All experiments were done in triplicate. The intracellular/extracellular drug concentration ratios were then calculated.

[2] = Metabolic stability assay in human liver microsomes; type: in vitro ADME; conditions: pH 7.4, HLMs 0.1 mg/mL, 37°C, NADPH
Procedure: IMB-YH-4py5-2H was incubated at 37°C for 0, 15, 30, 45, and 60 min in human liver microsomes (HLMs) for the metabolic stability study. The incubation system included 0.1 mg/mL pooled liver microsomes, 100 mM phosphate-buffered saline (PBS, pH 7.4), NADPH regeneration system (the final concentration contained 3.3 mM glucose-6-phosphate, 1.3 mM NADP^+, 0.4 U/mL glucose-6-phosphate dehydrogenase and 3.3 mM MgCl2), and 1 μM IMB-YH-4py5-2H.
After incubation, the samples were processed as described in “Sample processing”. All experiments were performed in triplicate. The concentration of IMB-YH-4py5-2H was measured using LC-MS/MS analysis.

[3] = Stability of QC samples in rat plasma; type: in vitro ADME; conditions: for %Theoretical, Autosampler: extracted plasma QC; for %Theoretical, Long-term / %Theoretical, 24 h ambient / %Theoretical, freeze-thaw: rat plasma; for %Theoretical, Long-term: 2 weeks at -20°C
Procedure: Six replicates of the QC samples at low, medium and high concentrations subjected to the conditions below were evaluated for the stability of IMB-4py5-2H in rat plasma. Short-term stability was assessed by the analysis of the QCs kept at room temperature for 24 h, which exceeded the routine preparation time of the samples. Long-term stability was determined by assaying the QCs after storage for 2 weeks at −20°C. Freeze–thaw stability was investigated after three freeze (−20°C)–thaw (room temperature) cycles. Post-preparative stability was assessed by analyzing the extracted QC samples kept in autosampler at 4°C for 24 h.

[4] = Pharmacokinetic study in rats, single oral dose; type: in vivo, Sprague-Dawley rats; conditions: for AUC(0-inf) / CL/F / MRT / Tmax / AUC(0-t) / Vd/F / half-life / Cmax: both sexes, Sprague-Dawley; for AUC(0-inf) / CL/F / MRT / Tmax / AUC(0-t) / Vd/F / half-life: plasma, rat; for AUC(0-t): read-out: AUC0-60; for Vd/F: read-out: Vz/F; for half-life: po; for Cmax: rat plasma
Procedure: A total of 18 adult SD rats were randomly divided into three dosing groups (half male and half female). IMB-YH-4py5-2H suspensions were freshly prepared in 1% (w/v) sodium carboxymethyl cellulose (CMC-Na). The rats were fasted with free access to water for 12 h prior to the oral administration of IMB-YH-4py5-2H at doses of 50, 100 or 200 mg/kg and fasted for another 2 h after administration. Blood samples of 0.2 mL were collected via the post-orbital venous plexus vein at 0.033, 0.083, 0.167, 0.333, 0.5, 0.75, 1, 1.5, 2, 4, 6, 8, 12, 24, 36, 48, and 60 h post dosing into a heparinized tube. Plasma samples, obtained by centrifuging blood at 2300 × g for 15 min at 4°C, were stored at −20°C until analysis.
The pharmacokinetic parameters of IMB-YH-4py5-2H were calculated by WinNonlin (Version 6.1, Pharsight Corp., Mountain View, CA, USA) using a non-compartmental model. Data were expressed as the mean ± standard deviation (S.D.).

## CN(C)C(=O)/C=C/C(=O)c1ccc(-c2ccncc2)cc1.Cl [IMB-YH-4py5-2H, (E)-N,N-dimethyl-4-oxo-4-(4-(pyridin-4-yl)phenyl)but-2-enamide hydrochloride]
[1]
  intracellular to extracellular concentration ratio (I/E ratio): 133.4±12.5
[2]
  half-life at 1 μM: < 0.25 h
[3]; autosampler 4°C 24 h, nominal 2.5 ng/mL
  %Theoretical, Autosampler: 100.11 ± 1.20%
[3]; autosampler 4°C 24 h, nominal 20 ng/mL
  %Theoretical, Autosampler: 103.26 ± 6.07%
[3]; autosampler 4°C 24 h, nominal 80 ng/mL
  %Theoretical, Autosampler: 97.85 ± 4.96%
[3]; nominal 2.5 ng/mL
  %Theoretical, Long-term: 92.33 ± 4.21%
[3]; nominal 20 ng/mL
  %Theoretical, Long-term: 91.65 ± 3.91%
[3]; nominal 80 ng/mL
  %Theoretical, Long-term: 94.98 ± 7.26%
[3]; room temperature 24 h, nominal 2.5 ng/mL
  %Theoretical, 24 h ambient: 94.35 ± 3.65%
[3]; room temperature 24 h, nominal 20 ng/mL
  %Theoretical, 24 h ambient: 91.96± 5.79%
[3]; room temperature 24 h, nominal 80 ng/mL
  %Theoretical, 24 h ambient: 103.77 ±2.51%
[3]; three freeze-thaw cycles, nominal 2.5 ng/mL
  %Theoretical, freeze-thaw: 90.11 ± 6.19%
[3]; three freeze-thaw cycles, nominal 20 ng/mL
  %Theoretical, freeze-thaw: 88.79 ± 3.27%
[3]; three freeze-thaw cycles, nominal 80 ng/mL
  %Theoretical, freeze-thaw: 94.17 ± 5.10%
[3]; room temperature 24 h, -20°C 2 weeks, three freeze-thaw cycles, autosampler 4°C 24 h
  stability in rat plasma: stable
[4]; single oral dose 50 mg/kg
  AUC(0-inf): 1440 ± 370 ng·h/mL
  CL/F: 613 mL/min/kg
  MRT: 7.63 ± 1.58 h
  Tmax: 0.28 ± 0.08 h
  AUC(0-t): 1400 ± 367 ng·h/mL
  Vd/F: 379 ± 100 L/kg
  Cmax: 367 ± 23 ng/mL
[4]; single oral dose 100 mg/kg
  AUC(0-inf): 2850 ± 430 ng·h/mL
  CL/F: 610 mL/min/kg
  MRT: 7.7 ± 1.43 h
  Tmax: 0.44 ± 0.09 h
  AUC(0-t): 2840 ± 425 ng·h/mL
  Vd/F: 336 ± 74 L/kg
  Cmax: 586 ± 31.2 ng/mL
[4]; single oral dose 200 mg/kg
  AUC(0-inf): 5730 ± 664 ng·h/mL
  CL/F: 589 mL/min/kg
  MRT: 10.7 ± 0.85 h
  Tmax: 0.33 h
  AUC(0-t): 5710 ± 659 ng·h/mL
  Vd/F: 394 ± 58 L/kg
  Cmax: 1300 ± 194 ng/mL
[4]; 50 mg/kg, single oral dose 50 mg/kg, read-out: t1/2 (converted)
  half-life: 7.24 ± 1.61 h
[4]; 100 mg/kg, single oral dose 100 mg/kg, read-out: t1/2 (converted)
  half-life: 6.37 ± 0.93 h
[4]; 200 mg/kg, oral, all three dosing groups (50, 100, 200 mg/kg), read-out: half-life (converted)
  half-life: ~7 h
[4]; 200 mg/kg, single oral dose 200 mg/kg, read-out: t1/2 (converted)
  half-life: 7.71 ± 0.41 h
[4]; following the same oral dose, YH-8 data ref 20
  AUC relative to that of YH-8: approximately 2.5 fold
